pIC50: −log10 of the molar value.
Key:
NAMPT = NAMPT (Homo sapiens, UniProt P43490); test: Time-Resolved Fluorescence Resonance Energy Transfer (TR-FRET) Binding Assay of NAMPT with PRPP; conditions: 2 nM NAMPT, 2 nM probe, 200 uM PRPP and 2.5 mM ATP, equilibrated 16 hours
In short: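 Final mix: 2 nM NAMPT, 2 nM probe, 1 nM Tb-anti-His antibody, 200 uM PRPP, 2.5 mM ATP, 2% DMSO in 1× assay buffer. Equilibrated 16 hours before TR-FRET read, allowing possible enzymatic modification of compounds.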

[1] = biological target: NAMPT (human, recombinant, C-terminally His-tagged) (Homo sapiens, UniProt P43490); test: Time-Resolved Fluorescence Resonance Energy Transfer (TR-FRET) Binding Assay of NAMPT; conditions: 6.8 nM NAMPT, 200 nM probe, equilibrated 3 hours, absence of substrates
In short: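 Recombinant C-terminally His-tagged human NAMPT (6.8 nM) incubated 3 h at room temperature with 200 nM Oregon Green 488–labelled nicotinamide-competitive probe and 1 nM Tb-anti-His antibody in HEPES pH 7.5, 2% DMSO. TR-FRET ratio Em520/Em495 normalized to controls; IC50 from four-parameter logistic fit.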

Chain of NAMPT (human, recombinant, C-terminally His-tagged) (P43490 whole entry): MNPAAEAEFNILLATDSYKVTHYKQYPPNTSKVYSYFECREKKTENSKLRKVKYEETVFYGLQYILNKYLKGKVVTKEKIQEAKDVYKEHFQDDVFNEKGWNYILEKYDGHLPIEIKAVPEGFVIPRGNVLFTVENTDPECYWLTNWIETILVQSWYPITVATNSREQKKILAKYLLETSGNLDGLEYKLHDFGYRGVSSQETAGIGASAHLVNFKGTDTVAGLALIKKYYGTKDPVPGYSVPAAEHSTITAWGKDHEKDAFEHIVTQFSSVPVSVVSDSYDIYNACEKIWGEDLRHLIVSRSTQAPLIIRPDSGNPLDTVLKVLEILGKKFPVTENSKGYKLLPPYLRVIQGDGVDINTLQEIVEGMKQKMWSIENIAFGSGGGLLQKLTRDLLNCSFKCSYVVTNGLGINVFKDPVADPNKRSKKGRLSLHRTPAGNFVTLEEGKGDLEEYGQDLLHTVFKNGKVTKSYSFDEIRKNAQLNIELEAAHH
Chain of NAMPT (P43490 whole entry): as above

Row | SMILES | pIC50 (NAMPT) | pIC50 [1]
1 | O=C(Nc1ccc(OC2CCN(C(=O)Cc3ccc(F)cc3F)CC2)cc1)C1CN(c2ccnnc2)C1 [Example 277, N-[4-({1-[(2,4-difluorophenyl)acetyl]piperidin-4-yl}oxy)phenyl]-1-(pyridazin-4-yl)azetidine-3-carboxamide] | 7.57 | 7.20
2 | CC(C)(O)C(=O)N1CCC(c2ccc(NC(=O)[C@H]3CCN(c4ccnnc4)C3)cc2)CC1 [Example 141, (3S)—N-{4-[1-(2-hydroxy-2-methylpropanoyl)piperidin-4-yl]phenyl}-1-(pyridazin-4-yl)pyrrolidine-3-carboxamide] | 7.12 | 5.91
3 | Cc1ncccc1N1CC(C(=O)Nc2ccc(C3CCN(C(=O)c4ccc(C(F)(F)F)cc4)CC3)cc2)C1 [Example 157, 1-(2-methylpyridin-3-yl)-N-(4-{1-[4-(trifluoromethyl)benzoyl]piperidin-4-yl}phenyl)azetidine-3-carboxamide] | 6.72 | 5.97
4 | CC(C)CCC(=O)N1CC(Oc2ccc(NC(=O)C3CN(c4ccnnc4)C3)cc2)C1 [Example 263, N-(4-{[1-(4-methylpentanoyl)azetidin-3-yl]oxy}phenyl)-1-(pyridazin-4-yl)azetidine-3-carboxamide] | 7.69 | 7.50
5 | O=C(Nc1ccc(OC2CCN(C(=O)C3CCC(F)(F)CC3)CC2)cc1)C1CN(c2ccnnc2)C1 [Example 270, N-[4-({1-[(4,4-difluorocyclohexyl)carbonyl]piperidin-4-yl}oxy)phenyl]-1-(pyridazin-4-yl)azetidine-3-carboxamide] | 7.45 | 7.13
6 | O=C(Nc1ccc(C2CCN(C(=O)CC3CCOCC3)CC2)cc1)C1CN(c2ccnnc2)C1 [Example 145, 1-(pyridazin-4-yl)-N-{4-[1-(tetrahydro-2H-pyran-4-ylacetyl)piperidin-4-yl]phenyl}azetidine-3-carboxamide] | 7.24 | 7.39
7 | CCOCCC(=O)N1CCC(c2ccc(NC(=O)C3CN(c4cccnn4)C3)cc2)CC1 [Example 380, N-{4-[1-(3-ethoxypropanoyl)piperidin-4-yl]phenyl}-1-(pyridazin-3-yl)azetidine-3-carboxamide] | 9.05 | 6.96
8 | O=C(Nc1ccc(OC2CCN(C(=O)c3cccc(OC(F)(F)F)c3)CC2)cc1)C1CN(c2ccnnc2)C1 [Example 292, 1-(pyridazin-4-yl)-N-[4-({1-[3-(trifluoromethoxy)benzoyl]piperidin-4-yl}oxy)phenyl]azetidine-3-carboxamide] | 7.19 | 7.00
9 | CCCCC(=O)N1CCC(c2ccc(NC(=O)C3CN(c4cccnn4)C3)cc2)CC1 [Example 318, N-[4-(1-pentanoylpiperidin-4-yl)phenyl]-1-(pyridazin-3-yl)azetidine-3-carboxamide] | 9.15 | 7.42
10 | CC(C)CCC(=O)N1CCC(c2ccc(NC(=O)C3CN(c4cccnn4)C3)cc2)CC1 [Example 324, N-{4-[1-(4-methylpentanoyl)piperidin-4-yl]phenyl}-1-(pyridazin-3-yl)azetidine-3-carboxamide] | 8.98 | 7.33
11 | O=C(Nc1ccc(OC2CCN(C(=O)CC3CCOCC3)CC2)cc1)C1CN(c2cccnc2C(F)(F)F)C1 [Example 3, N-(4-{[1-(tetrahydro-2H-pyran-4-ylacetyl)piperidin-4-yl]oxy}phenyl)-1-[2-(trifluoromethyl)pyridin-3-yl]azetidine-3-carboxamide] | 7.72 | 6.45
12 | CC(C)CC(=O)N1CCC(Oc2ccc(NC(=O)C3CN(c4ccnnc4)C3)cc2)CC1 [Example 266, N-(4-{[1-(3-methylbutanoyl)piperidin-4-yl]oxy}phenyl)-1-(pyridazin-4-yl)azetidine-3-carboxamide] | 7.27 | 6.92
13 | O=C(Nc1ccc(C2CCN(C(=O)c3ccc(C(F)(F)F)cc3)CC2)cc1)C1CN(c2cccnn2)C1 [Example 355, 1-(pyridazin-3-yl)-N-(4-{1-[4-(trifluoromethyl)benzoyl]piperidin-4-yl}phenyl)azetidine-3-carboxamide] | 9.01 | 6.94
14 | CC(=O)N[C@@H](CC(C)C)C(=O)N1CCC(c2ccc(NC(=O)C3CN(c4cccnc4C)C3)cc2)CC1 [Example 180, N-{4-[1-(N-acetyl-L-leucyl)piperidin-4-yl]phenyl}-1-(2-methylpyridin-3-yl)azetidine-3-carboxamide] | 6.91 | 6.52
15 | CC(C)(C(=O)N1CCC(Oc2ccc(NC(=O)C3CN(c4ccnnc4)C3)cc2)CC1)c1ccccc1 [Example 281, N-(4-{[1-(2-methyl-2-phenylpropanoyl)piperidin-4-yl]oxy}phenyl)-1-(pyridazin-4-yl)azetidine-3-carboxamide] | 7.83 | 7.69

Other lines, results leading:

Row | pIC50 (NAMPT) | pIC50 [1] | SMILES
16 | 9.56 | 6.91 | O=C(Nc1ccc(C2CCN(C(=O)CCN3CCOCC3)CC2)cc1)C1CN(c2cccnc2)C1 [Example 124, N-(4-{1-[3-(morpholin-4-yl)propanoyl]piperidin-4-yl}phenyl)-1-(pyridin-3-yl)azetidine-3-carboxamide]
17 | 9.77 | 7.93 | CC[C@H](C)C(=O)N1CCC(c2ccc(NC(=O)C3CN(c4cccnc4)C3)cc2)CC1 [Example 22, N-(4-{1-[(2S)-2-methylbutanoyl]piperidin-4-yl}phenyl)-1-(pyridin-3-yl)azetidine-3-carboxamide]
18 | 9.20 | 7.92 | CCC(C)(C)C(=O)N1CCC(c2ccc(NC(=O)C3CN(c4cccnc4)C3)cc2)CC1 [Example 133, N-{4-[1-(2,2-dimethylbutanoyl)piperidin-4-yl]phenyl}-1-(pyridin-3-yl)azetidine-3-carboxamide]
19 | 9.16 | 7.59 | CC1(C(=O)N2CCC(Oc3ccc(NC(=O)C4CN(c5cccnc5)C4)cc3)CC2)CCCCC1 [Example 53, N-[4-({1-[(1-methylcyclohexyl)carbonyl]piperidin-4-yl}oxy)phenyl]-1-(pyridin-3-yl)azetidine-3-carboxamide]
20 | 9.21 | 7.91 | CCC(CC)C(=O)N1CCC(c2ccc(NC(=O)C3CN(c4cccnn4)C3)cc2)CC1 [Example 328, N-{4-[1-(2-ethylbutanoyl)piperidin-4-yl]phenyl}-1-(pyridazin-3-yl)azetidine-3-carboxamide]
21 | 9.33 | 7.92 | CC(C)C(C)C(=O)N1CCC(c2ccc(NC(=O)C3CN(c4cccnc4)C3)cc2)CC1 (stereo not shown) [Example 139, N-{4-[1-(2,3-dimethylbutanoyl)piperidin-4-yl]phenyl}-1-(pyridin-3-yl)azetidine-3-carboxamide]
22 | 9.16 | 7.18 | O=C(Nc1ccc(OC2CCN(C(=O)Cc3cccc(F)c3)CC2)cc1)C1CN(c2cccnn2)C1 [Example 227, N-[4-({1-[(3-fluorophenyl)acetyl]piperidin-4-yl}oxy)phenyl]-1-(pyridazin-3-yl)azetidine-3-carboxamide]
23 | 9.18 | 7.90 | CC(C)(C)CC(=O)N1CCC(c2ccc(NC(=O)C3CN(c4cccnn4)C3)cc2)CC1 [Example 327, N-{4-[1-(3,3-dimethylbutanoyl)piperidin-4-yl]phenyl}-1-(pyridazin-3-yl)azetidine-3-carboxamide]
